{
  "source": "patent USRE40594E1",
  "about": "“Inhibitors of the bitter taste response” (Mount Sinai School of Medicine of New York University, priority 1998, dated 2008)",
  "key": {"[1]": {"test_system": "glossopharyngeal nerve responses of C57BL/6J mice", "assay": "Glossopharyngeal nerve recording on lingual stimulation with tastants", "type": "in vivo", "settings": "inhibitor 0.1 mM", "protocol": "Nerve Recording. Glossopharyngeal nerve responses were recorded from male C57BL/6J mice as previously described (Ninomiya, Y., et al., 1997, Am. J. Physiol. (London) 272:R1002-RI006). Each mouse was anesthetized with intraperitoneal injection of sodium pentobarbital (40-50 mg/kg) and maintained at a surgical level of anesthesis with supplemental injections of the drug. The trachea was cannulated, and the mouse was then fixed in the supine position with a head holder to allow dissection of the glossopharyngeal nerve. The hypoglossal nerve was transected bilaterally to prevent inadvertent tongue movements. The right glossopharyngeal nerve was exposed by removal of the digastric muscle and posterior horn of the hyoid bone. The glossopharyngeal nerve was then dissected free from underlying tissues and cut near its entrance to the posterior foramen lacerum. The entire nerve was placed on a silver wire electrode for whole nerve recording. An indifferent electrode was positioned nearby in the wound. […] Whole nerve responses were integrated by using an RMS-DC converter (Hendrick, Tallahassee, Fla.) with a time constant of 0.5 s. For chemical stimulation of the circumvallate and foliate papillae, an incision was made on each side of the animal's face from the comer of the mouth to just above the angle of the jaw, the papillae were exposed, and their trenches opened via slight tension applied through a small suture sewn in the tip of the tongue. Tastant solutions were delivered to the tongue by gravity flow, and flowed over the tongue for a controlled period. The stability of each preparation was monitored by the periodic application of 0.1 M NH4Cl. A recording was considered to be stable when the 0.1 M NH4Cl response magnitudes at the beginning and end of each stimulation series deviated by no more than 15%. Only responses from stable recordings were used in the data analysis. In the analysis of whole nerve responses, the magnitudes of the integrated response at 20, 25, 30, 35. and 40 s after stimulus onset were measured and averaged to generate tonic responses: the tonic response represents the sustained nerve response to continuous tastant stimulation of taste receptor cells. The relative tonic response for each stimulus was obtained by normalization to the response from 0.1 M NH4Cl (the tonic response of NH4Cl was defined as 1.0). Student's t test was used for statistical analysis."}, "[2]": {"test_system": "bovine taste receptor cell membranes (taste receptors) with transducin", "assay": "G protein activation assay (trypsin sensitivity): activation of transducin by bitter tastant plus taste membranes", "type": "biochemical, Bovine (Bos primigenius)", "description": "Taste receptor is contacted with gustducin or transducin and tastant, in the presence or absence of test inhibitor, under conditions suitable for activation of the G-protein present. […] In specific non-limiting embodiments, a subunits of transducin or gustducin may be combined with βγ subunits prior to this step, as set forth above. To the reaction mixture comprising taste receptors and gustducin or transducin, test inhibitor and/or bitter tastant may be added, and the resulting solution incubated to permit interaction of the elements.\nIn preferred embodiments, activation is assessed by a trypsin digestion assay. […] In a specific, non-limiting example, to perform a trypsin digestion assay according to the invention, TPCK-treated trypsin (1:25 trypsin to total protein in the reaction mixture) may be added, and the digestion may be performed at room temperature for about 15 minutes and stopped by adding soybean trypsin inhibitor (6:1 mol/mol inhibitor to trypsin). […] The separated polypeptides may then be transferred by electro-blotter to a poly (vinylidene difluoride) membrane blocked by the addition of 5% BLOTTO [50 mM Tris-HCI, pH 7.4/100 mM NaCl/5% nonfat dry milk], (30 min). G-protein peptides may then be visualized by binding of antibody directed toward transducin or gustducin, followed, for example, by binding of a detectably labeled secondary antibody. If a horseradish peroxidase-labeled secondary antibody is used, binding may be visualized by developing with bicinchoninic acid staining reagents and exposure to x-ray film.\nG Protein Activation Assays. Bovine (Bos primigenius) tongues were collected fresh from a local slaughterhouse and transported on ice to the laboratory. Circumvallate papillae were hand dissected, frozen in liquid nitrogen, and stored at −80° C. until use. […] The pelleted membranes were rinsed twice, resuspended in homogenization buffer lacking protease inhibitors, and further homogenized by 20 passages through a 25-gauge needle. Aliquots were either flash frozen or stored on ice until use. […] The separated polypeptides were transferred by electro-blotter to a poly (vinylidene difluoride) membrane, which was blocked by the addition of 5% BLOTTO [50 mM Tris-HCI, pH 7.4/100 mM NaCl/5% nonfat dry milk], (30 min), then transducin peptides were visualized by binding of transducin antiserum and horseradish peroxidase-labeled goat anti-rabbit secondary antibody, followed by developing with bicinchoninic acid staining reagents from Bio-Rad and exposure to x-ray film.\nChemicals. All bitter tastant and buffer chemicals were of the highest purity available and were purchased either from Sigma or Boehringer Mannheim, unless otherwise noted. […] The rabbit polyclonal antitransducin antibody was a kind gift of Mel Simon and John Watson (California Institute of Technology, Pasadena, Calif.)."}},
  "note": "“Also recorded” adds a separate entry of the source.",
  "data": [
    {"molecule": "Nc1nc2c(ncn2[C@@H]2O[C@H](COP(=O)(O)O)[C@@H](O)[C@H]2O)c(=O)[nH]1", "note": "[GMP, reference compound]", "values": [
      {"measurement": "inhibition of glossopharyngeal nerve responses to atropine", "setting": "[1]; 1.0 mM ATR, FIGS. 4A-C", "result": "had no effect"},
      {"measurement": "inhibition of glossopharyngeal nerve responses to sparteine", "setting": "[1]; 1.0 mM SPA, FIGS. 4A-C, 4I (P<0.001)", "result": "had no effect"},
      {"measurement": "inhibition of glossopharyngeal nerve responses to strychnine", "setting": "[1]; 1.0 mM STR, FIGS. 4A-C", "result": "had no effect"},
      {"measurement": "inhibition of glossopharyngeal nerve responses to DEN", "setting": "[1]; 5.0 mM DEN, FIGS. 4A-C", "result": "had no effect"},
      {"measurement": "inhibition of glossopharyngeal nerve responses to QUI", "setting": "[1]; QUI 0.1 and 1.0 mM, FIGS. 4D-F", "result": "had no effect"},
      {"measurement": "inhibition of in vitro activation of transducin (G-protein) by taste membranes plus bitter compounds, summary statement", "setting": "[2]; DEN, QUI and other bitter compounds, concentrations not given", "result": "did not"},
      {"measurement": "inhibition of taste membrane activation of transducin in response to other bitter tastants (than DEN)", "setting": "[2]; concentrations not given", "result": "did not inhibit"},
      {"measurement": "inhibition of activation of transducin by DEN plus bovine taste receptor membranes", "setting": "[2]; inhibitor 0.25, 0.5, 1.25, 2.5, 5.0 mM, DEN 5.0 mM, shift from 32-kDa to 23-kDa fragments, FIG. 1A/1E", "result": "does not inhibit; also recorded: did not inhibit"}
    ]}
  ]
}
